Results from the NIST ThermoML archive (doi:10.1016/j.fluid.2016.09.021).

Settings: Liquid, Vibrating tube method

CCCCCCCCCCCC [dodecane]
mass density [kg/m3]
Settings	293 K	313 K	333 K	353 K	373 K
2100 kPa	752.3	737.7	722.8	708.1	693.2
3100 kPa	752.9	738.5	723.6	709	694.3
4100 kPa	753.6	739.2	724.5	710	695.3
5000 kPa	754.2	739.9	725.3	710.9	696.3
10100 kPa	757.5	743.4	729.4	715.6	701.5
20000 kPa	763.5	750.1	736.6	723.9	710.8
30000 kPa	769	756.3	743.4	731.3	718.7
40000 kPa	774.3	761.8	749.6	737.7	726
50000 kPa	779	767.1	755.3	744.1	733.1
60000 kPa	783.8	772.1	760.8	750.1	739.4
69900 kPa	788	777	766	755.6	745.2
79900 kPa	792.5	781.6	770.9	760.7	750.7
89900 kPa	796.7	786.1	775.7	765.7	756
99900 kPa	800.8	790.4	780.1	770.5	761
109900 kPa	804.8	794.6	784.6	775.1	765.9
119900 kPa	808.7	798.7	788.8	779.6	770.6
129900 kPa	812.4	802.7	793.2	784	775.1
134900 kPa	814.4	804.6	795.1	786	777.4
137400 kPa	815.2	805.4	796	787	778.5
